Publication PMC6257796, “Effects of Eupatilin and Jaceosidin on Cytochrome P450 Enzyme Activities in Human Liver Microsomes” (Molecules, 2010)

What was measured:
Format in all cases: in vitro ADME
[1] = biological target: T1, CYP2D6 (Homo sapiens, UniProt P10635); test: Cocktail probe assay in pooled human liver microsomes: bufuralol 1'-hydroxylation (IC50); details: 5.0 μM bufuralol
T1 construct: pooled human liver microsomes (0.25 mg/mL); tissue BD Gentest Co. H161; host or cells: pooled human liver microsomes
T1 sequence (P10635 whole entry): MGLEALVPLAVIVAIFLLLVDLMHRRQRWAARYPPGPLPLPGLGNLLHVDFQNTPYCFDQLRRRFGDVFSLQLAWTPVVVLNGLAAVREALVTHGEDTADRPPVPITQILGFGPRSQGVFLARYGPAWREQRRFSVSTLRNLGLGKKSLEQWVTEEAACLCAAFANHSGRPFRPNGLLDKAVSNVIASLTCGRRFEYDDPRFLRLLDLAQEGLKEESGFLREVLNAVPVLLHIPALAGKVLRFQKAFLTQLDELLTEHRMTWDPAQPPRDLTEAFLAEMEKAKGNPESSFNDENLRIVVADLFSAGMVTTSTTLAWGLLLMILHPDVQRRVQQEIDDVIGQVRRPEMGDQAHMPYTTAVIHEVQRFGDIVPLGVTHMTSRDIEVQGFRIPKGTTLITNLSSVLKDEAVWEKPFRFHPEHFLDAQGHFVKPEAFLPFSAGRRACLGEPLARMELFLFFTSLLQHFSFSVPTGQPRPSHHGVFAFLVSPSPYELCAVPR
Experimental: (§1) The inhibitory potencies (IC50 values) of eupatilin and jaceosidin were determined with CYP assays in the presence and absence of eupatilin and jaceosidin (final concentrations of 0.1−100 μM with acetonitrile concentration of less than 0.5% v/v) using pooled human liver microsomes. Phenacetin O-deethylase, coumarin 7-hydroxylase, amodiaquine N-deethylase, diclofenac hydroxylase, [S]-mephenytoin 4'-hydroxylase, bufuralol 1'-hydroxylase, and midazolam 1'-hydroxylase activities were determined as probe activities for CYP1A2, CYP2A6, CYP2C8, CYP2C9, CYP2C19, CYP2D6, and CYP3A, respectively, using cocktail incubation and tandem mass spectrometry. The incubation mixtures were prepared in a total volume of 200 μL as follows: pooled human liver microsomes (0.25 mg/mL), 1.3 mM NADPH, 3.3 mM MgCl2, 50 mM potassium phosphate buffer (pH 7.4), and a cocktail of probe substrates and various concentrations of eupatilin or jaceosidin (0.1−100 μM). […] After a 3 min preincubation at 37 °C, the reactions were initiated by adding NADPH and incubated for 20 min at 37 °C with shaking in a water bath. After incubation, the reaction was stopped by placing the tubes on ice and adding 100 μL of ice-cold acetonitrile containing internal standards (0.5 μg/mL [^13C,^15N]-acetaminophen for acetaminophen and N-desethylamodiaquine, 0.5 μg/mL [^2H5]-7-hydroxycoumarin for 7-hydroxycoumarin, 2.0 μg/mL [^13C6]-4-hydoxydiclofenac for 4-hydoxydiclofenac, 0.5 μg/mL [^2H3]-4'-hydoxymephenytoin for 4-hydoxymephenytoin and 1'-hydroxymidazolam, and 0.5 μg/mL [^2H7]-1'-hydroxybufuralol for 1'-hydroxybufuralol). The incubation mixtures were then centrifuged at 10,000× g for 5 min. All incubations were performedin triplicate.
(§2) To evaluate the effect of preincubation on inhibitory potency, eupatilin and jaceosidin (0.1−100 μM) were preincubated for 30 min with NADPH, buffer, and microsomes before the addition of the CYP probe substrates. The reaction was started by addition of the cocktail of probe substrates.
(§3) All seven metabolites produced from the cocktail of CYP isoform-specific substrates were simultaneously determined by LC/MS/MS. The system consisted of a tandem quadrupole mass spectrometer (TSQ Quantum Access, ThermoFisher Scientific, CA, USA) coupled with a Nanospace SI-2 LC system. The separation was performed on an Atlantis dC18 column (5 μm, 2.1 mm i.d. × 100 mm, Waters, Waltham, MA, USA) using the gradient elution of a mixture of 5% methanol in 0.1% formic acid (mobile phase A) and 95% methanol in 0.1% formic acid (mobile phase B) at a flow rate of 0.25 mL/min: 10% mobile phase B for 1 min, 10% to 95% mobile phase B for 1 min, 95% mobile phase B for 5 min. […] Quantification was performed by selected reaction monitoring (SRM) of the [M+H]^+ ion and the related product ion for each metabolite. […]

[2] = biological target: T1, CYP2D6; test: Kinetic analysis (Ki, inhibition type) in human liver microsomes: bufuralol 1'-hydroxylation; details: pooled human liver microsomes
Experimental: (§4) The Ki values and inhibition types (competitive, noncompetitive, uncompetitive, or mixed) were determined for eupatilin and jaceosidin using Lineweaver plots, Dixon plots, and secondary reciprocal plots.
(§5) The reactions were initiated by addition of NADPH at 37 °C and stopped after 15 min by placing the incubation tubes on ice and adding 100 μL of ice-cold methanol containing an internal standard. The incubation mixtures were centrifuged at 10,000' g for 5 min, and aliquots (5 μL) of the supernatants were analyzed by liquid chromatography/tandem mass spectrometry (LC/MS/MS).
(§6) All seven metabolites produced from the cocktail of CYP isoform-specific substrates were simultaneously determined by LC/MS/MS. The system consisted of a tandem quadrupole mass spectrometer (TSQ Quantum Access, ThermoFisher Scientific, CA, USA) coupled with a Nanospace SI-2 LC system. The separation was performed on an Atlantis dC18 column (5 μm, 2.1 mm i.d. × 100 mm, Waters, Waltham, MA, USA) using the gradient elution of a mixture of 5% methanol in 0.1% formic acid (mobile phase A) and 95% methanol in 0.1% formic acid (mobile phase B) at a flow rate of 0.25 mL/min: 10% mobile phase B for 1 min, 10% to 95% mobile phase B for 1 min, 95% mobile phase B for 5 min. The column and autosampler temperatures were 50 °C and 4 °C, respectively. After 1.5 min, the LC eluant was diverted from waste to the mass spectrometer that was fitted with an electrospray ionization (ESI) source and operated in the positive ion mode. The ESI source settings for the ionization of the metabolites were as follows: electrospray voltage, 5.0 kV; vaporizer temperature, 420 °C; capillary temperature 360 °C; sheath gas pressure, 35 psi; auxiliary gas pressure, 10 psi. Quantification was performed by selected reaction monitoring (SRM) of the [M+H]^+ ion and the related product ion for each metabolite. The analytical data were processed using Xcalibur® software (ThermoFisher Scientific).
(§7) The IC50 values (concentration of inhibitor causing 50% inhibition of the original enzyme activity) were calculated using WinNonlin software, a non-linear regression analysis program (Pharsight, Mountain View, CA, USA). The apparent kinetic parameters for inhibitory potential (Ki values) were estimated from the fitted curves using Enzyme Kinetics Ver. 1.3 program (Systat Software Inc., San Jose, CA, USA).

[3] = biological target: T2, CYP1A2 (Homo sapiens, UniProt P05177); test: Cocktail probe assay in pooled human liver microsomes: phenacetin O-deethylation (IC50); details: 50 μM phenacetin
T2 construct: pooled human liver microsomes (0.25 mg/mL); tissue BD Gentest Co. H161; host or cells: pooled human liver microsomes
T2 sequence (P05177 1-516): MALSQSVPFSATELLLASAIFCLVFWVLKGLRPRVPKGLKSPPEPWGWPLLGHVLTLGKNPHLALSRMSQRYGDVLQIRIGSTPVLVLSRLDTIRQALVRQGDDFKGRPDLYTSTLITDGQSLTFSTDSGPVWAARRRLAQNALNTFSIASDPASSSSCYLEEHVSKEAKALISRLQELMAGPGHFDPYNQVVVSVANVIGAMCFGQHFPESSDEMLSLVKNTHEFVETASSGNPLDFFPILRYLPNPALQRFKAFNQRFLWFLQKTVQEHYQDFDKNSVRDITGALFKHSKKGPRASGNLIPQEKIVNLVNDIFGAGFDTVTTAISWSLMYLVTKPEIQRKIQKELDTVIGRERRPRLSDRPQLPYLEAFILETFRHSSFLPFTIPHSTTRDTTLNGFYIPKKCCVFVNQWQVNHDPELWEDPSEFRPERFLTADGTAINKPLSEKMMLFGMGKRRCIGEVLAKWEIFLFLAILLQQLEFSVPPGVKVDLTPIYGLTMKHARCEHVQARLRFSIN
Experimental: as §1, §2, §3

[4] = biological target: T3, CYP2C8 (Homo sapiens, UniProt P10632); test: Cocktail probe assay in pooled human liver microsomes: amodiaquine N-deethylation (IC50); details: 2.0 μM amodiaquine, no preincubation
T3 construct: pooled human liver microsomes (0.25 mg/mL); tissue BD Gentest Co. H161; host or cells: pooled human liver microsomes
T3 sequence (P10632 1-490): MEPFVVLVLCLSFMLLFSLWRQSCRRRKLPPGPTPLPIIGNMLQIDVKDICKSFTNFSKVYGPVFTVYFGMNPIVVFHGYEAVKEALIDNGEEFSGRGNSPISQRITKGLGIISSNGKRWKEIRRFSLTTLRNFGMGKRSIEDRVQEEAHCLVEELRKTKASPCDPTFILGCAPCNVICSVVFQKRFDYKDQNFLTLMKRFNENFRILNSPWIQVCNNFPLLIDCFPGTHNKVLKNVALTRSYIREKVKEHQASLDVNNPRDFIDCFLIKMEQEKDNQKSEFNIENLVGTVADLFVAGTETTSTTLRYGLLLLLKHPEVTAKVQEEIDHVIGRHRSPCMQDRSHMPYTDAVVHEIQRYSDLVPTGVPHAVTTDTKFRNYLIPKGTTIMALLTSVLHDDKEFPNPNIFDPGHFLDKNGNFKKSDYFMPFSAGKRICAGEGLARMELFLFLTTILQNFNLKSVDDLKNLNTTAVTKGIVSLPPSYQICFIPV
Experimental: as §1, with “After incubation, the reaction was stopped by placing the tubes on ice and adding 100 μL of ice-cold acetonitrile containing internal standards (0.5 μg/mL [^13C,^15N]-acetaminophen for acetaminophen and N-desethylamodiaquine, 0.5 μg/mL [^2H5]-7-hydroxycoumarin for 7-hydroxycoumarin, 2.0 μg/mL [^13C6]-4-hydoxydiclofenac for 4-hydoxydiclofenac, 0.5 μg/mL [^2H3]-4'-hydoxymephenytoin for 4-hydoxymephenytoin and 1'-hydroxymidazolam, and 0.5 μg/mL [^2H7]-1'-hydroxybufuralol for 1'-hydroxybufuralol). The incubation mixtures were then centrifuged at 10,000× g for 5 min. All incubations were performedin triplicate.” left out
All seven metabolites produced from the cocktail of CYP isoform-specific substrates were simultaneously determined by LC/MS/MS. […] Quantification was performed by selected reaction monitoring (SRM) of the [M+H]^+ ion and the related product ion for each metabolite. […]

[5] = biological target: T4, CYP2A6 (Homo sapiens, UniProt P11509); test: Cocktail probe assay in pooled human liver microsomes: coumarin 7-hydroxylation (IC50); details: for IC50, coumarin 7-hydroxylation (CYP2A6): pooled human liver microsomes, 2.5 μM coumarin
T4 construct: pooled human liver microsomes (0.25 mg/mL); tissue BD Gentest Co. H161; host or cells: pooled human liver microsomes
T4 sequence (P11509 1-494): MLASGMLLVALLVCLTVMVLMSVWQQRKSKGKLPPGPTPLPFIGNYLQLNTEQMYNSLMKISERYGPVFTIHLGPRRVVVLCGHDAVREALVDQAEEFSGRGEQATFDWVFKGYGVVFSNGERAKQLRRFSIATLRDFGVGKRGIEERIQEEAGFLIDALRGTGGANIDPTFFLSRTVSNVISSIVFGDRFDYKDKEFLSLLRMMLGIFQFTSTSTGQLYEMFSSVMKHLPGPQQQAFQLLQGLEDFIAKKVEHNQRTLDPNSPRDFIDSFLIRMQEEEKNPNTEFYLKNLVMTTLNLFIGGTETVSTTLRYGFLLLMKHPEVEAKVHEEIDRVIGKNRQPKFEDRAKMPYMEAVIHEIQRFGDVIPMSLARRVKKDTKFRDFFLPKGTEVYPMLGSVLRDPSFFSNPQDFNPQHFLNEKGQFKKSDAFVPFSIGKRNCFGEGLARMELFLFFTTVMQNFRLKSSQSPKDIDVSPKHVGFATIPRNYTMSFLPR
Experimental: as §1, §2, §6, §7

[6] = biological target: T5, CYP2C19 (Homo sapiens, UniProt P33261); test: Cocktail probe assay in pooled human liver microsomes: [S]-mephenytoin 4'-hydroxylation (IC50); details: 50 μM [S]-mephenytoin
T5 construct: pooled human liver microsomes (0.25 mg/mL); tissue BD Gentest Co. H161; host or cells: pooled human liver microsomes
T5 sequence (P33261 whole entry): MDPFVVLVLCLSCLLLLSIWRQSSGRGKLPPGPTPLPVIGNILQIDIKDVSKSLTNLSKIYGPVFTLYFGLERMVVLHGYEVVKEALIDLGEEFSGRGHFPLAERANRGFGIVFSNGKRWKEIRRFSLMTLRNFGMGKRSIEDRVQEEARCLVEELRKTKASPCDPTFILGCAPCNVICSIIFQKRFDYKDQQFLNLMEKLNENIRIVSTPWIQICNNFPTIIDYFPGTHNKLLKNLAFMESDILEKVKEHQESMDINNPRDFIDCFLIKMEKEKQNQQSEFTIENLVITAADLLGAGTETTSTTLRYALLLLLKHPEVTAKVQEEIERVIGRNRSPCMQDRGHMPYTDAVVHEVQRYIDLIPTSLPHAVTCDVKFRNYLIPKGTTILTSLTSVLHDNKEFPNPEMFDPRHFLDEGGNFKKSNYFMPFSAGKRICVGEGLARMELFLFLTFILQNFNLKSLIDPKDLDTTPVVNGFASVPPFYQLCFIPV
Experimental: as §1, §2, §3

[7] = biological target: T5, CYP2C19; test: Kinetic analysis (Ki, inhibition type) in human liver microsomes: [S]-mephenytoin 4'-hydroxylation; details: pooled human liver microsomes; for Inhibition type, S-mephenytoin 4'-hydroxylation (CYP2C19): Lineweaver, Dixon and secondary reciprocal plots
Experimental: as §4, §5, §6, §7

[8] = biological target: T2, CYP1A2; test: Kinetic analysis (Ki, inhibition type) in human liver microsomes: phenacetin O-deethylation; details: pooled human liver microsomes
Experimental: as §4, §5, §6, §7

[9] = biological target: T3, CYP2C8; test: Kinetic analysis (Ki, inhibition type) in human liver microsomes: amodiaquine N-deethylation; details: pooled human liver microsomes
Experimental: as §4, §5, §6, §7

[10] = biological target: T6, CYP2C9 (Homo sapiens, UniProt P11712); test: Cocktail probe assay in pooled human liver microsomes: diclofenac 4-hydroxylation (IC50); details: 10 μM diclofenac
T6 construct: pooled human liver microsomes (0.25 mg/mL); tissue BD Gentest Co. H161; host or cells: pooled human liver microsomes
T6 sequence (P11712 whole entry): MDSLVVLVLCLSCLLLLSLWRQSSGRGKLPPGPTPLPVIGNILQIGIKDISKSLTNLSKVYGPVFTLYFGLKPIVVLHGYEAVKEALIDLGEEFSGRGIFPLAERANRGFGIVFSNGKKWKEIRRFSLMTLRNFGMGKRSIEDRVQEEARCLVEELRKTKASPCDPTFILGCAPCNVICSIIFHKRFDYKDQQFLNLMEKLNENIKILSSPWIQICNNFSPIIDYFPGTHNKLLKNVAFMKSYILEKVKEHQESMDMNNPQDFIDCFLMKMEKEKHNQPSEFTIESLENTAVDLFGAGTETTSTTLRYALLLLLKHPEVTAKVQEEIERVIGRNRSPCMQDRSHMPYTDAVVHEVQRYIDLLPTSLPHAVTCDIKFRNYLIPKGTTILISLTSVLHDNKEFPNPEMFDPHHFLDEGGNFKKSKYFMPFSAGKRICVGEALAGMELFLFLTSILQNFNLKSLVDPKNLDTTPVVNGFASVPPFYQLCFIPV
Experimental: as §1, §2, §3

[11] = biological target: T6, CYP2C9; test: Kinetic analysis (Ki, inhibition type) in human liver microsomes: diclofenac 4-hydroxylation; details: pooled human liver microsomes; for Inhibition type, diclofenac 4-hydroxylation (CYP2C9): Lineweaver, Dixon and secondary reciprocal plots
Experimental: as §4, §5, §6, §7

[12] = tested on: CYP3A; test: Cocktail probe assay in pooled human liver microsomes: midazolam 1'-hydroxylation (IC50); details: for IC50, midazolam 1'-hydroxylation (CYP3A): pooled human liver microsomes, 2.5 μM midazolam
Experimental: as §1, §2, §6, §7

[13] = with 30 min preincubation in presence of NADPH
[14] = Lineweaver, Dixon and secondary reciprocal plots

IC50 ([1]; no preincubation): 79.1 ± 1.8 µM
IC50 [1, 13]: 82.3 ± 2.4 µM
Ki ([2]; 0.5-5 μM bufuralol): 57.8 ± 3.6 µM
Inhibition type, bufuralol 1'-hydroxylation (CYP2D6) [2, 14]: competitive
IC50 ([3]; no preincubation): 5.3 ± 0.81 µM
IC50 [3, 13]: 6 ± 0.45 µM
IC50 [4]: > 100 µM
Inhibition of CYP2A6-catalyzed coumarin 7-hydroxylation at the highest concentration tested ([5]; 100 μM, human liver microsomes): negligible inhibition
IC50, coumarin 7-hydroxylation (CYP2A6) ([5]; no preincubation): No inhibition
IC50, coumarin 7-hydroxylation (CYP2A6) [5, 13]: No inhibition
IC50 ([6]; no preincubation): 64.9 ± 4.8 µM
IC50 [6, 13]: 69.8 ± 3.8 µM
Ki ([7]; 10-100 μM [S]-mephenytoin): 45.1 ± 4.2 µM
Inhibition type, S-mephenytoin 4'-hydroxylation (CYP2C19) [7]: mixed
Inhibition type, S-mephenytoin 4'-hydroxylation (CYP2C19) ([7]; listed as Jaceosidin): mixed type
Ki ([8]; 10-100 μM phenacetin): 3.8 ± 0.23 µM
Inhibition type, phenacetin O-deethylation (CYP1A2) [8, 14]: competitive
Ki ([9]; 0.5-5 μM amodiaquine): 109 ± 7.3 µM
Inhibition type, amodiaquine N-deethylation (CYP2C8) [9, 14]: competitive
IC50 ([10]; no preincubation): 10.2 ± 1 µM
IC50 [10, 13]: 8.6 ± 0.91 µM
Ki ([11]; 1-50 μM diclofenac): 6.4 ± 0.25 µM
Inhibition type, diclofenac 4-hydroxylation (CYP2C9) [11]: competitive
Inhibition type, diclofenac 4-hydroxylation (CYP2C9) ([11]; listed as Jaceosidin): competitive
Inhibition of CYP3A4-catalyzed midazolam 1'-hydroxylation at the highest concentration tested ([12]; 100 μM, human liver microsomes): negligible inhibition
IC50, midazolam 1'-hydroxylation (CYP3A) ([12]; no preincubation): No inhibition
IC50, midazolam 1'-hydroxylation (CYP3A) [12, 13]: No inhibition
SMILES: COc1cc(-c2cc(=O)c3c(O)c(OC)c(O)cc3o2)ccc1O [jaceosidin, 5,7-dihydroxy-2-(4-hydroxy-3-methoxyphenyl)-6-methoxychromen-4-one]
